From patent publication US8314140B2, “4-hydroxythiobenzamide derivatives of drugs” (Antibe Therapeutics Inc., priority 2006, dated 2012)
“Also recorded” adds a separate entry of the source.

Key:
human platelet cAMP = assay: Human platelet cAMP concentrations; assay type: cell-based; conditions: 3-100 μM, 10 minutes, IBMX 0.5 mM; versus vehicle; FIG. 21
Procedure: Platelet-rich plasma (PRP) was prepared as above. Aliquots of 400 μL of PRP were placed in glass tubes which contained IBMX (isobutyl-1-methylxanthine; 0.5 mM), an non-selective phosphodiesterase inhibitor. […] As a positive control, some aliquots of platelets were treated with forskolin (10 μM), a known stimulus of adenylate cyclase. Ten minutes later, the samples of PRP were centrifuged at 9,000 g for 2 min and the supernatant was discarded. The pellet was resuspended in buffer, sonicated for 2 min, then cAMP concentrations were determined using a specific enzyme-linked immunosorbent assay (Cayman Chemical Co., Ann Arbor, Mich., USA). Experiments were repeated 4-6 times for each concentration of each drug.

gastric ulcers = assay: Healing of acetic acid-induced gastric ulcers; assay type: in vivo, rat; conditions: oral twice-daily for 4 days; 30 μmol/kg (naproxen, Compound XX 60 μmol/kg); FIG. 17
Procedure: Gastric ulcers were induced via serosal application of acetic acid, as described by Elliott et al., A nitric oxide-releasing nonsteroidal anti-inflammatory drug accelerates gastric ulcer healing in rats. […] After 4 days of such treatment, the rats were euthanized and the stomach was excised and photographed. The area (in mm^2) of the ulcer was determined planimetrically by an individual unaware of the treatments given to the rats.

[1] = tested on: carrageenan-induced paw edema; assay: Carrageenan hindpaw edema model; assay type: in vivo, rat; conditions: oral 30 min prior to carrageenan; diclofenac 1, 3 or 10 mg/kg; Compound XVII equimolar to diclofenac 3 mg/kg; FIG. 14
Procedure: Male, Wistar rats weighing 175-200 g were given the test compounds orally 30 min prior to subplantar injection of 100 ul of 1% lambda carrageenan.

gastric damage [2] = assay: Gastric damage score 3 h after oral dosing; assay type: in vivo, rat; conditions: oral, 3 h; diclofenac 20 mg/kg or equimolar doses (Compound XVII 27.3 mg/kg, TBZ 7.3 mg/kg); FIG. 8
Description: There were 5 rats in each group.
(§1) Each group consisted of 5 rats.

gastric damage [3] = assay: Incidence of gastric damage at end of the leukocyte adherence experiment
Description: (§2) Briefly, post-capillary mesenteric venules in anestheitized rats are examined under a light microscope.

[4] = tested on: leukocyte adherence to the vascular endothelium; assay: Leukocyte adherence after NSAID or derivative, intravital microscopy (Example 21); assay type: in vivo, rat; conditions: comment on Table 2
Description: as §2

[5] = H2S generation in buffer and liver homogenate (Example 24); assay type: in vitro ADME; conditions: 1 mM, FIG. 19
Procedure: Two ml of an assay reaction mixture was introduced in to ice-cold 250 μl of NaOH 0.1 N in a sealed 3-neck reactor. […] Incubations were lead with or without presence of 10% (w/v) liver homogenate and 2 mM pyridoxal 5′-phosphate. A constant stream of nitrogen was passed through the mixture via a gas-inlet capillary. […] Khan et al., 1980). Reactions were initiated by transferring the tube from ice bath to a 37° C. water bath. The stream of nitrogen carried the sulfide acid in the second reactor containing 2 ml of SAOB as described previously. After incubating at 37° C. for 90 minutes, 1 ml of 50% trichloroacetic acid solution was added to mixture to stop the reaction. […] The concentration of sulfide in SAOB solution was measured with a sulfide sensitive electrode as previously described (Ubuka, 2002; Khan et al., 1980).

visceral pain perception = assay: Rat model of visceral pain perception (colorectal distension, AWR score); assay type: in vivo; conditions: 0.8 mL colorectal distention; glibenclamide 10 mg/kg i.p. 30 min before; FIG. 3
Procedure: A rat model of visceral pain perception, a pre-clinical model of irritable bowel syndrome, was used in the following example. Rats (male, Wistar, 200-250 g, obtained from Charles River, Monza, Italy), were housed in plastic cages and maintained under controlled conditions with 12-hours light/dark cycle with lights on at 7.00 AM. Tap water and standard laboratory chow were freely available. Before experiments, rats were individually trained by spending 2-3 hours per day in a plexiglass cage for 2-3 days. It allowed them to adjust to a movement-restriction environment. Food was withheld for 12 hours before colorectal distension (CRD) recording were performed. Experiments were performed in awake rats and were conducted in a blind manner in that the observer was not aware of the identity of drug administered to each animal.
In the testing day, rats were sedated with ether inhalation and a 2 cm long latex balloon was inserted intrarectally 2 cm from the anal verge and fixed at the base of the tail. The balloon was connected via a double-barreled cannula to a pressure transducer to continuously monitoring the rectal pressure by a computer (PowerLab PC, A.D. Instruments, Milford, Mass., USA) and to a syringe for inflation/deflation of the balloon. The rats were then housed in a small cage (20×8×8 cm) on an elevated Plexiglas™ platform and allowed to wake up and adapt for 1 hour. After recovery from sedation, animals underwent the CRD procedure and behavioral responses were tested. The night before the experiments, the balloons were inflated and left overnight so the latex stretched and the balloons became compliant.
CRD of 20 seconds, performed every 5 minutes, was applied in increment of 0.4 ml starting from 0.4 ml up to 1.6 ml water. To achieve an accurate measurement of the colonic parameters and perception, the distensions were repeated twice for each intensity and data for each animal were averaged for analysis. Each animal underwent a double set of CRD. Twenty minutes after the first sequence of CRD (0.4 mL-1.6 ml water), drugs were administered intraperitoneally (i.p.) and a second set of CRD was performed. Behavioral responses during the first and the second set of CRD were assessed and compared.
Behavioral response to CRD was assessed by measuring the abdominal withdrawal reflex (AWR) using a semiquantitative score (1).
A rat model of visceral pain perception as described above was used to compare pain perception scores for 5-amino-2-(4-thiocarbamoyl-phenoxycarbonyloxy)-benzoic acid (Compound XXVII) with or without glibenclamide, an inhibitor of ATP-sensitive K^+ (KATP) channels.
Experiments were carried out as described in Example 13, except that groups of 5 rats each were treated with vehicle, trimebutine maleate (10 mg/kg), or with equimolar doses of trimebutine thiocarbamoylbenzoate (Compound III) or thiocarbamolybenzoate alone.

[6] = patients after usual doses; Dig. Dis. Sci. 1989; 34: 573-578; cited from earlier work
COX-2 = target: T1, COX-2 (Rattus norvegicus, UniProt P35355); assay: Rat airpouch assay, exudate PGE2 after zymosan; assay type: in vivo; conditions: 60 μmol/kg; versus vehicle; FIG. 15
T1 construct: from tissue; host or cells: rat subcutaneous airpouch exudate, in vivo, zymosan-induced
T1 sequence (P35355 18-604): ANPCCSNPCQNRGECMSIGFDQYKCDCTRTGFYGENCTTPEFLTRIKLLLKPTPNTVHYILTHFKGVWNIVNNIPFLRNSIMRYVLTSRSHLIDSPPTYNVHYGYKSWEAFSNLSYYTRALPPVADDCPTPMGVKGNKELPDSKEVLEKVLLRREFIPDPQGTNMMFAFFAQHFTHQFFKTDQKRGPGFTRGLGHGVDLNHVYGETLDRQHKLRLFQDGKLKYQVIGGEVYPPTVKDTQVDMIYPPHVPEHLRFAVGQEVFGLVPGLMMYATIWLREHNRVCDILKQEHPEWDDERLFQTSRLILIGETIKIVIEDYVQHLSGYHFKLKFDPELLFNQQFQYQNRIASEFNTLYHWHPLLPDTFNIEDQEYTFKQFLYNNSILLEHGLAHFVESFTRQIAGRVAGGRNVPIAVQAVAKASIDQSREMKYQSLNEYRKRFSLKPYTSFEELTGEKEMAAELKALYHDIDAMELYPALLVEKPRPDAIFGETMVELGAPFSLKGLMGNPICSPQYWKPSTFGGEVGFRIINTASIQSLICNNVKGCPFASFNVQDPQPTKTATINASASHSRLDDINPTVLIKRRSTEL
Procedure: Briefly, a subcutaneous “pouch” is created by repeated injections of air over several days. Once established, inflammation in the pouch can be induced by injection of 1 mL of 1% zymosan. […] Another group of 5 rats was treated with the vehicle, but received an injection of 0.9% sterile saline into the pouch rather than zymosan.
as §1

[7] = hypertensive rats, 60 μmol/kg intraperitoneal bolus, 60 minutes; FIG. 18

CCC(C)(C)C(=O)O[C@H]1C[C@@H](C)C=C2C=C[C@H](C)[C@H](CC[C@H]3C[C@H](OC(=O)CCC(=O)Oc4ccc(C(N)=S)cc4)CC(=O)O3)[C@H]21 [Compound I, Succinic acid 2-{2-[8-(2,2-dimethyl-butyryloxy)-2,6-dimethyl-1,2,6,7,8,8a-hexahydro-naphthalen-1-yl]-ethyl}-6-oxo-tetrahydro-pyran-4-yl ester 4-thiocarbamoyl-phenyl ester]
platelet cAMP (human platelet cAMP): significant increase in platelet cAMP at concentrations of 10, 30 and 100 μM

NC(=S)c1ccc(OC(=O)Cc2ccccc2Nc2c(Cl)cccc2Cl)cc1 [Compound XVII, [2-(2,6-dichloro-phenylamino)-phenyl]-acetic acid 4-thiocarbamoyl-phenyl ester]
gastric ulcer healing (ulcer surface area) (gastric ulcers): significantly greater healing
paw edema (paw volume increase) [1]: reduced paw edema to a greater extent; also recorded: comparable to the effect of diclofenac at a dose of 10 mg/kg
gastric damage score (gastric damage [2]): no gastric damage; also recorded: significantly less gastric damage than diclofenac
percent incidence of gastric damage compared to the parent drug alone (gastric damage [3]; comment on Table 2): significantly reduced the percent incidence of gastric damage
Percent Incidence of Gastric Damage (gastric damage [3]; intragastric 30 μmol/kg (naproxen and Compound XX 60 μmol/kg), end of experiment): 20%
number of adherent leukocytes compared to the parent drug alone [4]: significantly reduced the number of adherent leukocytes
melting point: 170 to 172 °C
H2S generated in liver homogenate ([5]; 10% (w/v) liver homogenate): greater release of H2S from Compound XVII than from TBZ
H2S generated in buffer ([5]; potassium phosphate buffer pH 7.4): significantly more release of H2S than an equivalent amount of TBZ

Nc1ccc(O)c(C(=O)O)c1 [mesalamine, reference compound]
pain perception score after glibenclamide pretreatment (visceral pain perception): did not affect the pain perception
concentration in the colonic lumen [6]: up to 5 mM

COc1ccc2cc([C@H](C)C(=O)O)ccc2c1 [naproxen]
exudate PGE2 in the pouch (COX-2 activity) (COX-2): significantly suppressed COX-2 activity
increase in systolic blood pressure [7]: substantial increase in systolic blood pressure
